Measurements: ChEMBL document CHEMBL4411316, “Design, synthesis and identification of novel coumaperine derivatives for inhibition of human 5-LOX: Antioxidant, pseudoperoxidase and docking studies” (Bioorg Med Chem, 2019)
Activity calls are given as the source filed them. The rule behind the calls is not given here.

What was measured:
[1] = target: T1, Polyunsaturated fatty acid 5-lipoxygenase (Homo sapiens) (UniProt P09917); assay: Inhibition of recombinant human 5-LOX expressed in Escherichia coli at 20 uM using arachidonic acid as substrate by UV-vis spectrophotometric method relative to control
T1 sequence (whole entry): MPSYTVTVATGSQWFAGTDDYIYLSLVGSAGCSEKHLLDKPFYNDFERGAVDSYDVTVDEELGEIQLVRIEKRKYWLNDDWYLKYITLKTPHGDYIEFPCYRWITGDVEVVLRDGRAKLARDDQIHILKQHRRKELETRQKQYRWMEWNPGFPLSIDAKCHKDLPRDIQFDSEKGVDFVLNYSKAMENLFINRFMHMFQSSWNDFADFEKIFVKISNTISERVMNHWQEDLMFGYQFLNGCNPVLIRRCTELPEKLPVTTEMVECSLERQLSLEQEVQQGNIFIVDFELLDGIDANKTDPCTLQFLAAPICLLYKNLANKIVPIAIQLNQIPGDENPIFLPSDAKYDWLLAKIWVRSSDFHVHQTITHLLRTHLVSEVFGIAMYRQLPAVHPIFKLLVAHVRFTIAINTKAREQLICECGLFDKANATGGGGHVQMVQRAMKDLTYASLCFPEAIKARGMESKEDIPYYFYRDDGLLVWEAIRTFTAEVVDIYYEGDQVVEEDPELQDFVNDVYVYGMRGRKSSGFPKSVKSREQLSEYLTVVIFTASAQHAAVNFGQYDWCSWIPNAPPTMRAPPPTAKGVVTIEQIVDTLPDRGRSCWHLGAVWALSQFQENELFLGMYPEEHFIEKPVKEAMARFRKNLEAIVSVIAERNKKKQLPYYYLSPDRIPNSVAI

[2] = Antioxidant activity assessed as DPPH radical scavenging activity at 20 uM incubated for 30 mins under dark condition relative to control; format: functional
[3] = target: T1, Polyunsaturated fatty acid 5-lipoxygenase (Homo sapiens); assay: Inhibition of recombinant human 5-LOX pseudoperoxidase activity expressed in Escherichia coli BL21 assessed as compound redox activity by measuring reduction in absorption at 10 uM using 13(S)-HpODE as substrate by UV-vis spectrophotometric method relative to control; design: scale not given: the % may be the effect or the level left
[4] = target: T2, Polyunsaturated fatty acid 5-lipoxygenase (Homo sapiens, UniProt P09917); assay: Inhibition of human 5-LOX using arachidonic acid as substrate measured after 10 mins by ELISA
T2 sequence (P09917 whole entry): T1 sequence (whole entry)

[5] = target: T2, Polyunsaturated fatty acid 5-lipoxygenase; assay: Inhibition of recombinant human 5-LOX expressed in Escherichia coli using arachidonic acid as substrate by UV-vis spectrophotometric method

Structure (SMILES)	inhibition [1] [%]	also measured
O=C(/C=C/C=C/c1ccc(F)cc1)N1CCCCC1	48.7	
O=C(/C=C/C=C/C=C/c1ccc(O)c(O)c1)N1CCCCC1	30.3	
O=C1O[C@H]([C@@H](O)CO)C(O)=C1O		Activity [2]: 80.1%
O=C(/C=C/C=C/c1ccc2c(c1)OCO2)N1CCCCC1	47.5	
COc1cc(/C=C/C=C/C(=O)N2CCCCC2)cc(OC)c1O	32.7	
COc1ccc(/C=C/C=C/C(=O)N2CCCCC2)cc1	42.6	
O=C(/C=C/c1ccc(O)c(O)c1)N1CCCCC1	55.2	
COC1=C(OC)C(=O)C(CCCCCCCCCCO)=C(C)C1=O [IDEBENONE]		IC50 [4]: > 10 µM
O=C(/C=C/C=C/C=C/c1ccc2c(c1)OCO2)N1CCCCC1	76	Activity [2]: 0.9%; Activity [3]: inactive
COc1cc(/C=C/C=C/C(=O)N2CCCCC2)cc(OC)c1OC	66.7	
COc1cc(/C=C/c2ccc(O)cc2)cc(OC)c1 [PTEROSTILBENE]		IC50 [4]: 9.32 µM
COc1cc(/C=C/C=C/C(=O)N2CCCCC2)ccc1O	55.5	
O=C(/C=C/C=C/c1cc(O)c(O)c(O)c1)N1CCCCC1	82.5	IC50 [5]: 2.3 µM; Activity [2]: 71.3%; Activity [3]: 50.8%
O=C(/C=C/c1ccc2c(c1)OCO2)N1CCCCC1	39.9	
Oc1cc(O)cc(/C=C/c2ccc(O)cc2O)c1 [OXYRESVERATROL]		IC50 [4]: 18.5 µM

Continued, in another order:

inhibition [1] [%]	Structure (SMILES)	also measured
64.9	COc1cc(/C=C/C=C/C(=O)N2CCCCC2)cc(OC)c1	
77.1	COc1cc(OC)c(/C=C/C=C/C(=O)N2CCCCC2)c(OC)c1	Activity [2]: 3.6%; Activity [3]: inactive
11.8	CSc1ccc(/C=C/C=C/C(=O)N2CCCCC2)cc1	
36	COc1ccc(/C=C/C=C/C(=O)N2CCCCC2)c(OC)c1OC	
44.4	O=C(/C=C/C=C/c1ccc(O)cc1)N1CCCCC1	
82.8	O=C(/C=C/C=C/c1ccc(O)c(O)c1)N1CCCCC1	IC50 [5]: 2.1 µM; Activity [2]: 76.8%; Activity [3]: 57.4%
27.4	CN(C)c1ccc(/C=C/C=C/C=C/C(=O)N2CCCCC2)cc1	
1.08	COc1ccc(/C=C/C=C/C=C/C(=O)N2CCCCC2)cc1	
51.9	COc1ccc(/C=C/C=C/C(=O)N2CCCCC2)cc1OC	
13.4	CN(C)c1ccc(/C=C/C=C/C(=O)N2CCCCC2)cc1	
14.5	O=C(/C=C/C=C/c1ccc(Cl)cc1)N1CCCCC1	
36.3	O=C(/C=C/C=C/c1ccccc1)N1CCCCC1	
16.1	O=C(/C=C/C=C/c1ccc(OC2CCCC2)cc1)N1CCCCC1	
18.3	CC(=O)Oc1ccc(/C=C/C=C/C(=O)N2CCCCC2)cc1	
